The results in this text go back to article PMC9927415, “Tyrosine Kinase Inhibitors Display Potent Activity against Cryptosporidium parvum” (Microbiology Spectrum, 2022).

Holding throughout (assay): KINOMEscan competitive binding
For experiment [1], the target named is T1, PAK4 (Homo sapiens, UniProt O96013).
T1 construct: purchased DiscoverX (KINOMEscan)
Conditions: n=1, read-out: Percent inhibition, PAK4.

The target in experiment [2] is T2, PDPK1 (Homo sapiens, UniProt O15530).
T2 construct: purchased DiscoverX (KINOMEscan)
T2 sequence (O15530 1-556): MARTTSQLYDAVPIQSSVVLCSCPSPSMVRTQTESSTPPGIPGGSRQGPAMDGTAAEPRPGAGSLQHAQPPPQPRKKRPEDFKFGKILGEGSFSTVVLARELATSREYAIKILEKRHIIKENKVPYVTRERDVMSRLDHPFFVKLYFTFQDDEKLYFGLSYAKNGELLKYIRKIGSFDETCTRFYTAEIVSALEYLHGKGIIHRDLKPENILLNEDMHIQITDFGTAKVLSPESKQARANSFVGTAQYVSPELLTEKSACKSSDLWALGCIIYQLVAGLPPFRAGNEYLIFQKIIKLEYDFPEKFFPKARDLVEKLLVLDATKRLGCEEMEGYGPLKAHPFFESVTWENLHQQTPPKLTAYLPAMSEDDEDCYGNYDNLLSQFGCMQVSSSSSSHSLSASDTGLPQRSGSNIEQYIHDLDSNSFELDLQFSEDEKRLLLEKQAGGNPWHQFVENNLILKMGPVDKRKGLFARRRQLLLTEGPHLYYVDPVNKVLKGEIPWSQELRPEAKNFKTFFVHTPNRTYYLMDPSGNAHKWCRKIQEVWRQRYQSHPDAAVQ
The conditions noted are these: n=1, read-out: Percent inhibition, PDPK1.

In experiment [3] the target is T3, PHKG2 (Homo sapiens, UniProt P15735).
T3 construct: purchased DiscoverX (KINOMEscan)
T3 sequence (P15735 1-406): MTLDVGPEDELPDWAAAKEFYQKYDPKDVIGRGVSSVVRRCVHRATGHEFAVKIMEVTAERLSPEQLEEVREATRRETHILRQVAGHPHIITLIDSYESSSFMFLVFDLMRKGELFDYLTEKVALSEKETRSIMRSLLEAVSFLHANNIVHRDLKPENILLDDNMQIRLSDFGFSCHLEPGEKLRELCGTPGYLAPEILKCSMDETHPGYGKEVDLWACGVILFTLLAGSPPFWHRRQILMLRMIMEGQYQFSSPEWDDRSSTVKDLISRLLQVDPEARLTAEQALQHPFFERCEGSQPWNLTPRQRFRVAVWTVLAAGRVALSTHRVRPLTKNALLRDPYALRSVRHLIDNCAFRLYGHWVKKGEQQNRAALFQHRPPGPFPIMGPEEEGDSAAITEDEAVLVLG
The conditions noted are these: n=1, read-out: Percent inhibition, PHKG2.

Experiment [4] has as its target T4, PRKG2 (Homo sapiens, UniProt Q13237).
T4 construct: purchased DiscoverX (KINOMEscan)
T4 sequence (Q13237 1-762): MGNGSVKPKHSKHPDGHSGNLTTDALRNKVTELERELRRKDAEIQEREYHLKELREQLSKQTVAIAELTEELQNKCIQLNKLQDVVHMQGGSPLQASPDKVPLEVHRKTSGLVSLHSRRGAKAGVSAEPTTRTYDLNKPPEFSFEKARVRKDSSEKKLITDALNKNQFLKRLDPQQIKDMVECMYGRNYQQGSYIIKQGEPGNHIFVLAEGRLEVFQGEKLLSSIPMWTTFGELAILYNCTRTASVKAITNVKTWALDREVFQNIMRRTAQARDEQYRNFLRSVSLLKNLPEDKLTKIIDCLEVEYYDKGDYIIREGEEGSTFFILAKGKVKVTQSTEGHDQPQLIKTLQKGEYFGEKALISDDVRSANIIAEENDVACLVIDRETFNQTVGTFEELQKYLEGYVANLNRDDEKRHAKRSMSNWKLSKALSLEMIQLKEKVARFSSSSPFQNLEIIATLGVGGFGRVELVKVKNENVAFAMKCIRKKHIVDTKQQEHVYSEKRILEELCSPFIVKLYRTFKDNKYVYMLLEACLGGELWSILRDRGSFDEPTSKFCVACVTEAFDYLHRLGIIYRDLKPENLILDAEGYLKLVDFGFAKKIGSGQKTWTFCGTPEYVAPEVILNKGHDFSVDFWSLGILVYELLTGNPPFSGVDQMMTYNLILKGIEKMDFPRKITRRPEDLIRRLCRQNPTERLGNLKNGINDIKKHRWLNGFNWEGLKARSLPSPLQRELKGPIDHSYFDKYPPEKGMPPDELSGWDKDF
The conditions noted are these: n=1, read-out: Percent inhibition, PRKG2.

Experiment [5] concerns the target T5, PTK2B (Homo sapiens, UniProt Q14289).
T5 construct: purchased DiscoverX (KINOMEscan)
Conditions: n=1, read-out: Percent inhibition, PTK2B.

Experiment [6] concerns the target T6, RPS6KA2(Kin.Dom.1) (Homo sapiens, UniProt Q15349).
T6 construct: RPS6KA2(Kin.Dom.1); purchased DiscoverX (KINOMEscan)
Conditions: n=1, read-out: Percent inhibition, RPS6KA2(Kin.Dom.1).

Experiment [7] concerns the target T7, SRPK1 (Homo sapiens, UniProt Q96SB4).
T7 construct: purchased DiscoverX (KINOMEscan)
The conditions noted are these: n=1, read-out: Percent inhibition, SRPK1.

Experiment [8] concerns the target T8, TRKA (Homo sapiens, UniProt P04629).
T8 construct: purchased DiscoverX (KINOMEscan)
Conditions: n=1, read-out: Percent inhibition, TRKA.

Experiment [9] addresses T9, TXK (Homo sapiens, UniProt P42681).
T9 construct: purchased DiscoverX (KINOMEscan)
T9 sequence (P42681 1-527): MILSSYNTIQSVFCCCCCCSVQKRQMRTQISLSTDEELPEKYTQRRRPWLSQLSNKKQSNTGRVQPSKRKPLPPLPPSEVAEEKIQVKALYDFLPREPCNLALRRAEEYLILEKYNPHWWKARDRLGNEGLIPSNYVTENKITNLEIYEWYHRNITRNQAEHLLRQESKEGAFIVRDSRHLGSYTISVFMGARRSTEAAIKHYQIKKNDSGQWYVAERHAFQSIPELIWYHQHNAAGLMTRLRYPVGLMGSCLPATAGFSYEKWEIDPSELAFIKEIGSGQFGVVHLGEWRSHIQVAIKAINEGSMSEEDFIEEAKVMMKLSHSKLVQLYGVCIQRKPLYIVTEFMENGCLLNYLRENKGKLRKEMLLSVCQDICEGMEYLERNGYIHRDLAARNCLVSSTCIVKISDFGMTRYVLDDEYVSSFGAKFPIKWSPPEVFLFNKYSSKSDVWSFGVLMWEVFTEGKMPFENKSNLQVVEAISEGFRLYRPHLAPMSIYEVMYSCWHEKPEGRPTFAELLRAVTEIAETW
The conditions noted are these: n=1, read-out: Percent inhibition, TXK.

Experiment [10] deals with T10, YANK3 (Homo sapiens, UniProt Q86UX6).
T10 construct: purchased DiscoverX (KINOMEscan)
The conditions noted are these: n=1, read-out: Percent inhibition, YANK3.

T5 sequence (Q14289 whole entry): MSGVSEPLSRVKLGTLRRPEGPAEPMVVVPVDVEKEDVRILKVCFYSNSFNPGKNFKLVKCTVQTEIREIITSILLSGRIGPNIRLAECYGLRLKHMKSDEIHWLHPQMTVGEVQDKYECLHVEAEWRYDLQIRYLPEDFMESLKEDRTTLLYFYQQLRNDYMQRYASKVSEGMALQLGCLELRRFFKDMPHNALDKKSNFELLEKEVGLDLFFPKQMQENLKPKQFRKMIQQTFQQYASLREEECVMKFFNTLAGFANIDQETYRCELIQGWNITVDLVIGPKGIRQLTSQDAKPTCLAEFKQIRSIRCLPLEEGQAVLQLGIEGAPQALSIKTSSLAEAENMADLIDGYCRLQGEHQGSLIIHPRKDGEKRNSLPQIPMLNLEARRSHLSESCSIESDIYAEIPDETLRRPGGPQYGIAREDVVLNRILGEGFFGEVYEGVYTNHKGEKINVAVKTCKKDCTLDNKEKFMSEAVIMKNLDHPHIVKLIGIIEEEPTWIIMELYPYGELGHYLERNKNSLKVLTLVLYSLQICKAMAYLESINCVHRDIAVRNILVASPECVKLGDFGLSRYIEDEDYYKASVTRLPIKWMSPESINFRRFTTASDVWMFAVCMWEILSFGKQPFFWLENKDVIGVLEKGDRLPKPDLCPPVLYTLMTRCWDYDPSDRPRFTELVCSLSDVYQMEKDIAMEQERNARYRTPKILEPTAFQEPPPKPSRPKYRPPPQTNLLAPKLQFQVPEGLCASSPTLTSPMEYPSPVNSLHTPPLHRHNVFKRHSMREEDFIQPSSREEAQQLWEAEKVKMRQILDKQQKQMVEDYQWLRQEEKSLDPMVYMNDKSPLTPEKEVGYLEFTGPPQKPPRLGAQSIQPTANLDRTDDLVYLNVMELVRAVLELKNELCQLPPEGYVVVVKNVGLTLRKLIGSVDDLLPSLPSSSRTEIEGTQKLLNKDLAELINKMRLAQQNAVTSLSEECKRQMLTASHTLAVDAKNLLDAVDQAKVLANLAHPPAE
T7 sequence (Q96SB4 whole entry): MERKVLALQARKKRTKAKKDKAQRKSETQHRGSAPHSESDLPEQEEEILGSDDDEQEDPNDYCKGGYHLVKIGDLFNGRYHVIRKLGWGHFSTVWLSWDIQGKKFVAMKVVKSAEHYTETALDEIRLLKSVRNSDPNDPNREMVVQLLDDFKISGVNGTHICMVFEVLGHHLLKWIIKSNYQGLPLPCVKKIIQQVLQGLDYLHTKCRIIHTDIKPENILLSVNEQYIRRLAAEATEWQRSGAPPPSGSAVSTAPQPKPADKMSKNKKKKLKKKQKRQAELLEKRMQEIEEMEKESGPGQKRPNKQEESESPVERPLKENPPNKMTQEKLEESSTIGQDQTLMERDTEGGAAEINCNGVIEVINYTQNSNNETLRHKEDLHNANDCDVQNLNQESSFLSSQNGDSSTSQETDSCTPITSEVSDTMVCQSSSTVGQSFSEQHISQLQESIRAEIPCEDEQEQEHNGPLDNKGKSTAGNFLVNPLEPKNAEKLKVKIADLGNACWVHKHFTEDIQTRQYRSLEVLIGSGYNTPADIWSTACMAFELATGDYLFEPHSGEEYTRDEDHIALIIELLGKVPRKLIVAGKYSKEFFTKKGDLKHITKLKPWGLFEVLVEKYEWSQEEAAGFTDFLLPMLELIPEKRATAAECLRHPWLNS
T10 sequence (Q86UX6 whole entry): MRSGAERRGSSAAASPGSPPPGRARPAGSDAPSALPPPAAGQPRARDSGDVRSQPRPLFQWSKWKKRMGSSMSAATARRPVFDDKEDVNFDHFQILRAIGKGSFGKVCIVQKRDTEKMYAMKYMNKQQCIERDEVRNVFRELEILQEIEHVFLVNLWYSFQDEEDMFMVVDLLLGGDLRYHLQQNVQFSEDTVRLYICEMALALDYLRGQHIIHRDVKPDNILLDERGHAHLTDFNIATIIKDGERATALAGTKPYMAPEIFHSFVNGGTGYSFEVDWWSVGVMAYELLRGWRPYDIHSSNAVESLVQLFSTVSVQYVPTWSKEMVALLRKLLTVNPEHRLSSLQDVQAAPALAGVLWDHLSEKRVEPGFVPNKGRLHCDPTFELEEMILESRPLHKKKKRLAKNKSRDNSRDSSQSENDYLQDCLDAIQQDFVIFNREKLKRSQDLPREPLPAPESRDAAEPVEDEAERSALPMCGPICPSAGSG
T8 sequence (P04629 33-796): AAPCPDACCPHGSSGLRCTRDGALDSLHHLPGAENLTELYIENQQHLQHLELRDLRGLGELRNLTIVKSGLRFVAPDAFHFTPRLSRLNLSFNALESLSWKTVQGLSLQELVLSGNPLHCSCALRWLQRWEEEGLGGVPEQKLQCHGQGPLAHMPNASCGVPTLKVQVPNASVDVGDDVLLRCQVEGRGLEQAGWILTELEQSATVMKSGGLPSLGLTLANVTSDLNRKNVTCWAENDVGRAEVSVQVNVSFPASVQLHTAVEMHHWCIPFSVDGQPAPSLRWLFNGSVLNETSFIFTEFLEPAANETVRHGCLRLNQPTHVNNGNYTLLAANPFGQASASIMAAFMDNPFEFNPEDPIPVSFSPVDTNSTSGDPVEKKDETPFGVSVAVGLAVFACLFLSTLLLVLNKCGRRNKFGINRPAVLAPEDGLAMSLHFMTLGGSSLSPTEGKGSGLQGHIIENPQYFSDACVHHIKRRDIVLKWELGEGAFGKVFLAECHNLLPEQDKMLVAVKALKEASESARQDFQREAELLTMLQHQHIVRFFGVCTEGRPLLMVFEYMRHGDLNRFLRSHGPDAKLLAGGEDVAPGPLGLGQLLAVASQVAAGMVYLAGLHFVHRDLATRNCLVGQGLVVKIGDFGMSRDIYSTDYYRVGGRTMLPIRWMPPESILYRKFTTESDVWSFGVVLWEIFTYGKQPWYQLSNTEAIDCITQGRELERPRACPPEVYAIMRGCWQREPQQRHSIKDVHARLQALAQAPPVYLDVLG
T6 sequence (Q15349 1-388 limits assumed): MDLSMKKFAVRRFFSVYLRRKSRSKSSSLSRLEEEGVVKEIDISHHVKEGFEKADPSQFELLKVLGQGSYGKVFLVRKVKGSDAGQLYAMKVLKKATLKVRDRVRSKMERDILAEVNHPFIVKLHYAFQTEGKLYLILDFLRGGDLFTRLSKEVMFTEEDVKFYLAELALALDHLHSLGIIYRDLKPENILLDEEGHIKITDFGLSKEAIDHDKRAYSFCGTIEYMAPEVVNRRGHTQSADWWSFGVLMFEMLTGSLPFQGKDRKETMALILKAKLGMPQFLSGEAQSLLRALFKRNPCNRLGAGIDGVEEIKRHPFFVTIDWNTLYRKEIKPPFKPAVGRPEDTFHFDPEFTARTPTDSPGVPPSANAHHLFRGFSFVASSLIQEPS
T1 sequence (O96013 whole entry): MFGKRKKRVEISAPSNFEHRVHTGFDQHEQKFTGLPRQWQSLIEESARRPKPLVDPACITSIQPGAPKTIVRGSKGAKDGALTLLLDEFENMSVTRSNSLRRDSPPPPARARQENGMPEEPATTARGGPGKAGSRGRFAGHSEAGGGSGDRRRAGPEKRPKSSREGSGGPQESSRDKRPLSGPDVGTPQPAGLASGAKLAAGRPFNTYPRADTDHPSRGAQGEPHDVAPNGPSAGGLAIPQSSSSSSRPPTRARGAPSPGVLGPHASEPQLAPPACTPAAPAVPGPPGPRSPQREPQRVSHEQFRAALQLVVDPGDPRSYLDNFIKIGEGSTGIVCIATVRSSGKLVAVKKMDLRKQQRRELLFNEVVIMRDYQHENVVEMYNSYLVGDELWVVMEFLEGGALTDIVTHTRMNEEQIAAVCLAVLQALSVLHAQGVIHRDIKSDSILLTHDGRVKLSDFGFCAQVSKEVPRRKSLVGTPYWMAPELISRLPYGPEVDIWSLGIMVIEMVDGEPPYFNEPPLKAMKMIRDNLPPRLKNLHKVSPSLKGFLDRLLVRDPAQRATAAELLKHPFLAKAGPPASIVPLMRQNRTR

By inhibition is commonly meant the drop in the measured response relative to a control, in per cent. For the compound `CN1CCN(c2ccc(Nc3nccc(-c4cnn5ncccc45)n3)cc2C#N)CC1` [Compound 1], the inhibition at 10 µM in experiment [1] stood at 95.7%; in [2] it was 0%; in experiment [3], 100%; in experiment [4], 0%; in experiment [5], 83.9%; in [6] it was 77.6%. Besides, the inhibition at 10 µM in experiment [7] was found to be 95.5%; in experiment [8], 91.3%; in experiment [9], 0%; in experiment [10], 0%.
Consider `COc1ccc(Nc2nccc(-c3cnn4ncccc34)n2)cc1` [Compound 2], for which the inhibition at 10 µM stood at 0% in [1]; 0% in experiment [2]; 97.1% in [3]; 0% in experiment [4]; 89.6% in experiment [5]; 0% in experiment [6]. For the same compound, the inhibition at 10 µM is 90.6% in [7], 0% in experiment [8], 0% in experiment [9] and 0% in experiment [10].
In the case of `Cc1ccc(O)cc1Nc1ccnc(Nc2cccc(C(N)=O)c2)n1` [Compound 3], the inhibition at 10 µM in experiment [1] came to 0%; in experiment [2], 0%; in experiment [3], 0%; in experiment [4] it was 0%; in experiment [5] it was 83.8%; in experiment [6] it was 0%. In addition, the inhibition at 10 µM in [7] was 0%; in [8] it was 0%; in experiment [9] it was 100%; in [10], 0%.
With `Cc1ccc(O)cc1N(C)c1ccnc(Nc2cccc(S(N)(=O)=O)c2)n1` [Compound 4], the inhibition at 10 µM in experiment [1] amounted to 0%; in [2], 0%; in experiment [3] it was 0%; in [4], 0%; in [5] it was 99%; in [6] it was 0%. For the same compound, the inhibition at 10 µM in [7] is 0%; in experiment [8], 0%; in [9], 100%; in experiment [10] it was 78.6%.
As for `Fc1cccc(COc2ccc(Nc3ncnc4c3CN(CCN3CCOCC3)CC4)cc2Cl)c1` [Compound 6], the inhibition at 10 µM in experiment [1], in [2], in experiment [3], in experiment [4], in [5] and in experiment [6] was 0% each time. The inhibition at 10 µM in experiment [7], in [8], in experiment [9] and in experiment [10] was 0% in each case.
Turning to `COc1cc(Nc2nccc(-c3sc(N)nc3-c3cccc(NC(=O)c4c(F)cccc4F)c3)n2)cc(OC)c1OC` [Compound 7], the inhibition at 10 µM amounted to 0% in experiment [1]; 68.3% in experiment [2]; 0% in [3]; 0% in [4]; 99.9% in [5]; 97.2% in [6]. For the same compound, the inhibition at 10 µM in experiment [7] was 0%; in experiment [8] it was 0%; in experiment [9] it was 90.4%; in [10], 94.8%.
As for `C[C@@H](Oc1cc(-c2cnc3ccccn23)sc1C(N)=O)c1ccccc1Cl` [Compound 8], the inhibition at 10 µM in [1] amounted to 0%; in experiment [2], 0%; in experiment [3], 74.6%; in [4], 0%; in experiment [5], 0%; in experiment [6] it was 70%. The inhibition at 10 µM in experiment [7] worked out at 96.1%; in experiment [8] it was 0%; in [9] it was 0%; in experiment [10] it was 0%.
Take `c1ccc(COc2cccc(-c3ccnc4[nH]ccc34)c2)cc1` [Compound 9]: the inhibition at 10 µM in [1], in experiment [2], in experiment [3], in experiment [4], in experiment [5] and in experiment [6] was 0% each time. The inhibition at 10 µM in experiment [7] is 71.2%; in [8], 0%; in experiment [9] it was 0%; in experiment [10], 0%.
On to `Clc1ccc(Nc2ncc(-c3ccccc3)s2)cc1` [Compound 10], for which the inhibition at 10 µM in [1], in experiment [2], in experiment [3], in experiment [4], in experiment [5] and in experiment [6] was 0% throughout. The inhibition at 10 µM in experiment [7], in [8], in experiment [9] and in experiment [10] was 0% each time.
As to `Nc1ncc2c(-c3ccncc3)c[nH]c2n1` [Compound 11], the inhibition at 10 µM in experiment [1] worked out at 0%; in experiment [2], 79.6%; in experiment [3] it was 0%; in experiment [4] it was 0%; in experiment [5], 0%; in [6] it was 0%. For the same compound, the inhibition at 10 µM in experiment [7], in experiment [8], in [9] and in experiment [10] was 0% each time.
